Test results reported in publication PMC8154581, “Discovery of Novel Thiophene-arylamide Derivatives as DprE1 Inhibitors with Potent Antimycobacterial Activities” (Journal of Medicinal Chemistry, 2021).
Values after ≈ are worked out from the molar mass of the structure shown. Values joined by “and” are separate entries in the source; they are usually repeats but may differ in a detail not shown here. Equal values may be shown once. Read-outs that look alike come from different tables or passages of the source.

Tests used:
M. tuberculosis = tested on: M. tuberculosis; parameters: method as in PMID 19299584, PMID 24500695; conditions: antimycobacterial activity; cited from earlier work
in vitro [1] = conditions: male, mouse, hepatocytes
in vitro [2] = conditions: human
Mt-DprE1 = Mt-DprE1 (Mycobacterium tuberculosis, UniProt P9WJF1); type: biochemical, M. tuberculosis
Chain of Mt-DprE1 (P9WJF1 whole entry, looked up): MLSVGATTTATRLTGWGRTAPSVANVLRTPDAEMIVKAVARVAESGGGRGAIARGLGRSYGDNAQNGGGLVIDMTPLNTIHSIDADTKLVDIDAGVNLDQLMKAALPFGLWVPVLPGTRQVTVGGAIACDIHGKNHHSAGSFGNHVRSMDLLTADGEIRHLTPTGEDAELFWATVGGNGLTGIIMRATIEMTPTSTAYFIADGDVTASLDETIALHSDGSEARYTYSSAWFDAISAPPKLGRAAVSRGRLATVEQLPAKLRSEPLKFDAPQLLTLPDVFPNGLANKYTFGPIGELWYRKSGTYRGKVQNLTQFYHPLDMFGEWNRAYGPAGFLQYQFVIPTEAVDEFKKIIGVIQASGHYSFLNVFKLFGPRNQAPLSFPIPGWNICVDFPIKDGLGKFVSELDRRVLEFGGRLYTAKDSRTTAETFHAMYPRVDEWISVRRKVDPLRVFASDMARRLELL

M. tuberculosis H37Rv [3] = test: MIC against replicating M. tuberculosis H37Rv, microplate Alamar blue assay (MABA); type: cell-based; conditions: Mycobacterium tuberculosis, H37RV
hERG K+ channel = hERG K+ channel (Homo sapiens, UniProt Q12809); test: Inhibition of the hERG K+ channel, electrophysiology
Chain of hERG K+ channel (Q12809 whole entry): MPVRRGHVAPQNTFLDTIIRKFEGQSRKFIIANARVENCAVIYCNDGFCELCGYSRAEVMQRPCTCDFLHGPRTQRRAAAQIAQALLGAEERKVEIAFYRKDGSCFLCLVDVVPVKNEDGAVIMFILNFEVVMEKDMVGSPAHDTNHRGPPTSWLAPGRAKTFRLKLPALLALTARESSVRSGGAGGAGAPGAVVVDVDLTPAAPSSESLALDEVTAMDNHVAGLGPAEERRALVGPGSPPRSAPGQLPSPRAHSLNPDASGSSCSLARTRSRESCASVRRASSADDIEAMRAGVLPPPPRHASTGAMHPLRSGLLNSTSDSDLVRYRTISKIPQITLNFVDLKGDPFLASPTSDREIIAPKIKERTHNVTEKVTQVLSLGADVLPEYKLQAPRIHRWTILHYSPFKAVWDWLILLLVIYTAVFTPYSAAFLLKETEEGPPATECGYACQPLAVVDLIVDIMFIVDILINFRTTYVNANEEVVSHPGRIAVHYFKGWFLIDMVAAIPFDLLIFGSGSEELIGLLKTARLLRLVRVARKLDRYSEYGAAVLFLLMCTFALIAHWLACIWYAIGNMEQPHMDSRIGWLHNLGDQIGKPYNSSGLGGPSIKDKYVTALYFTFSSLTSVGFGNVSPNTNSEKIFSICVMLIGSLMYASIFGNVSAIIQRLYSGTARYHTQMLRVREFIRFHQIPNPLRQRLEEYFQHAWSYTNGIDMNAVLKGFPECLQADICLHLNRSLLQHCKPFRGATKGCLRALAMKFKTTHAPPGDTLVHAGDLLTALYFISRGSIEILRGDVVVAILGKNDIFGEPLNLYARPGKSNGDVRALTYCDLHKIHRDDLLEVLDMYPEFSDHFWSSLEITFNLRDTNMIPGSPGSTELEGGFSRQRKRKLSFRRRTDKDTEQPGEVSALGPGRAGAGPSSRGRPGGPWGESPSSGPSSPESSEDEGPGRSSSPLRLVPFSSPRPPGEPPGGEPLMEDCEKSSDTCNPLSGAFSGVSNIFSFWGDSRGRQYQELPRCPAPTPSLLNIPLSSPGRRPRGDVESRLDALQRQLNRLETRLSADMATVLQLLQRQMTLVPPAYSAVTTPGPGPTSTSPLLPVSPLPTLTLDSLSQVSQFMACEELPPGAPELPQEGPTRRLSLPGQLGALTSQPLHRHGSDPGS

Vero cells = test: Cytotoxicity assay in Vero cells (MTT); type: cell-based; conditions: Chlorocebus sabaeus, 48 h, read-out: IC50 (Vero)
in vitro [4] = conditions: human, hepatocytes
M. tuberculosis H37Rv [5] = test: In vivo efficacy in acute TB infection model in Balb/c mice; conditions: for log10 CFU/lung: oral, three weeks, INH 25 mg/kg; for Δlog10 CFU: in vivo
[6] = Cytotoxicity assay in HepG2 cells (MTT); conditions: human
[7] = Pharmacokinetic studies in Balb/c mice; conditions: for AUC(0-inf) at 24 h / AUC(0-t) at 24 h / Cmax at 24 h / MRT inf at 24 h / clearance at 24 h / half-life at 24 h / Tmax at 24 h / bioavailability at 24 h: male, Balb/c, mouse, in vivo
[8] = Hepatocyte stability assay, mouse; conditions: male, mouse hepatocytes
[9] = Hepatocyte stability assay, human; conditions: human hepatocytes
[10] = tested on: M. tuberculosis (H37Rv) in infected mouse J774A.1 macrophages; type: cell-based
[11] = against M. tuberculosis H37Rv, Tables 1-3, read-out: MIC
[12] = supplementary CSV, same values as Tables 1-3, read-out: Minimal inhibit concentration

Compound | MICs (M. tuberculosis) [µg/mL] | IC50 DprE1 (Mt-DprE1) [µg/mL] | MIC (M. tuberculosis H37Rv [3]; [11]) [µg/mL] | MIC (M. tuberculosis H37Rv [3]; [12]) [µg/mL] | MIC (M. tuberculosis H37Rv [3]; Table 4, read-out: MIC H37Rv) [µg/mL] | IC50 (hERG K+ channel) [µM] | Δlog10 CFU (M. tuberculosis H37Rv [5]) [log10 CFU] | IC50 at 48 h [6] [µg/mL] | AUC(0-inf) at 24 h ([7]; iv, 5 mg/kg) [ng·h/mL] | AUC(0-t) at 24 h ([7]; iv, 5 mg/kg) [ng·h/mL] | Cmax at 24 h ([7]; iv, 5 mg/kg) [ng/mL] | MRT inf at 24 h ([7]; iv, 5 mg/kg) [min] | clearance at 24 h ([7]; iv, 5 mg/kg) [mL/min/kg] | half-life at 24 h ([7]; iv, 5 mg/kg) [min] | AUC(0-inf) at 24 h ([7]; po, 50 mg/kg) [ng·h/mL] | AUC(0-t) at 24 h ([7]; po, 50 mg/kg) [ng·h/mL] | Cmax at 24 h ([7]; po, 50 mg/kg) [ng/mL] | MRT inf at 24 h ([7]; po, 50 mg/kg) [min] | Tmax at 24 h ([7]; po, 50 mg/kg) [min] | bioavailability at 24 h ([7]; po, 50 mg/kg) [%] | also measured
C[C@H]1COC2(CCN(c3nc(=O)c4cc(C(F)(F)F)cc([N+](=O)[O-])c4s3)CC2)O1 [BTZ043] | < 0.016 |  |  |  |  |  |  |  |  |  |  |  |  |  |  |  |  |  |  |  | 
CCOC(=O)NC(=O)c1ccsc1NC(=O)c1ccc(C(=O)N2CCCCC2)s1 [Compound 24j, Ethyl (2-(5-(Piperidine-1-carbonyl)thiophene-2-carboxamido)thiophene-3-carbonyl)carbamate] |  | 0.3 ± 0.1 (≈ 0.689 µM) | 0.14 (≈ 0.321 µM) | 0.14 (≈ 0.321 µM) | 0.059 (≈ 0.135 µM) | 28.3 |  |  |  |  |  |  |  |  |  |  |  |  |  |  | half-life at 1 µM (in vitro [1]): 19.3 min; remaining at 0.5 h, 1 µM (in vitro [1]): 34%; melting point: 175 to 176 °C; IC50 (in vitro [2]): > 64 µg/mL; IC50 (Vero cells; Vero): > 64 µg/mL; half-life at 1 µM (in vitro [4]): 72.5 min; remaining at 0.5 h, 1 µM (in vitro [4]): 75.1%
COC(=O)NC(=O)c1ccsc1NC(=O)c1ccc(C(=O)N2CCCCC2)cc1 [Compound 25a, Methyl (2-(4-(Piperidine-1-carbonyl)benzamido)thiophene-3-carbonyl)carbamate] |  | 0.9 ± 0.2 (≈ 2.17 µM) | 0.19 (≈ 0.457 µM) | 0.19 (≈ 0.457 µM) |  | 22.6 | 2.02 | > 64 | 833 | 830 | 4560 | 12 | 101 | 15.6 | 657 | 651 | 486 | 66 | 34.8 | 7.9 | log10 CFU/lung (M. tuberculosis H37Rv [5]; first column (batch with 25a; untreated 6.44), 25a 100 mg/kg): 4.42 ± 0.45 log10 CFU; half-life at 24 h ([7]; po, 50 mg/kg): 51 min; half-life at 1 µM [8]: 27.1 min; remaining at 0.5 h, 1 µM [8]: 46.5%; half-life at 1 µM [9]: 20.3 min; remaining at 0.5 h, 1 µM [9]: 35.9%; log10 CFU/macrophages [10]: 4.77 ± 0.10 log10 CFU and 5.06 ± 0.03 log10 CFU; Δlog10 CFU [10]: 0.75 log10 CFU and 0.46 log10 CFU; IC50 (Vero cells; Vero cells): > 64 µg/mL
O=c1nc(N2CCN(CC3CCCCC3)CC2)sc2c([N+](=O)[O-])cc(C(F)(F)F)cc12 [PBTZ169] | < 0.016 |  |  |  | 0.0001 (≈ 0.000219 µM) |  |  |  |  |  |  |  |  |  |  |  |  |  |  |  | 
CCOC(=O)NC(=O)c1ccsc1NC(=O)c1nc2ccccc2s1 [TCA1, reference compound] |  | 0.1 ± 0.01 (≈ 0.266 µM) | 0.48 (≈ 1.28 µM) |  | 0.47 (≈ 1.25 µM) | 18.3 | 2.86 | 46.1 (≈ 123 µM) | 7910 | 7910 | 14300 | 23.4 | 10.6 | 28.2 | 33700 | 33700 | 10600 | 172 | 60 | 42.6 | log10 CFU/lung (M. tuberculosis H37Rv [5]; second column (another batch, with TCA1; untreated 7.10), TCA1 100 mg/kg): 4.24 ± 0.25 log10 CFU; enhancement of oral bioavailability relative to 25a ([7]; Balb/c mice): 5 fold; half-life at 24 h ([7]; po, 50 mg/kg): 131 min; half-life at 1 µM [8]: 85.3 min; remaining at 0.5 h [8]: 74.8%; half-life at 1 µM [9]: 5.97 min; remaining at 0.5 h, 1 µM [9]: 3.1%; IC50 (Vero cells; Vero cells): 31.8 µg/mL (≈ 84.6 µM)
